Patent US20210260009A1, “METHODS AND COMPOSITIONS FOR THE TREATMENT OF A RENAL DISEASE” (priority 2020, published 2021)

Key:
[1] = target: T1, E. coli apo-tryptophanase (TnaA) (Escherichia coli, UniProt P0A853); assay: In vitro tryptophanase assay (indole production by purified TnaA, Kovac's reagent); format: biochemical
T1 construct: purchased Sigma-Aldrich
Procedure: E. coli apo-tryptophanase (Sigma-Aldrich) was resuspended in 1 ml 100 mM potassium phosphate pH 8 buffer, aliquoted and kept at −20° C. 5 μl of apo-tryptophanase were added to 120 μl of 100 mM potassium phosphate pH 8 buffer with 1 mM pyrodxal-5-phosphate (PLP) and various treatments (NaCl, NaHS, L-cysteine, DTT or Na2S4) and incubated for 45 min at 37° C. Then 125 μl of 100 mM potassium phosphate with 5 mM L-tryptophan were added and the samples were incubated for 1 h at 37° C. Then 250 μl of 20% TCA were added to the samples, followed by a 15 min incubation on ice to precipitate TnaA. […] For the WT and ΔdecR TnaA activity assay, TnaA was purified from 10 ml bacterial cultures grown for 3 h in LB and then supplemented with 5 mM L-cysteine for 1 h, using the His-Spin protein miniprep kit (Zymo research). The purified protein was diluted 1:10 in 250 μl of 100 mM potassium phosphate pH 8 buffer with 1 mM PLP and 5 mM L-tryptophan and incubated for 1 h at 37° C., further processing was performed as mentioned above. TnaA activity was normalized to purified protein concentration, measured using BCA assay kit (Thermo Fisher).

E. coli TnaA = target: T2, E. coli TnaA (Escherichia coli, UniProt P0A853); assay: TnaA S-sulfhydration by pull-down and Western blot (E. coli lysates, purified TnaA); format: biochemical
T2 construct: made in house; host or cells: E. coli K-12 carrying the chromosomal tnaA-his allele under its native promoter (W3110 for purification)
T2 sequence (P0A853 other isoform, or with tags, fused parts or gaps): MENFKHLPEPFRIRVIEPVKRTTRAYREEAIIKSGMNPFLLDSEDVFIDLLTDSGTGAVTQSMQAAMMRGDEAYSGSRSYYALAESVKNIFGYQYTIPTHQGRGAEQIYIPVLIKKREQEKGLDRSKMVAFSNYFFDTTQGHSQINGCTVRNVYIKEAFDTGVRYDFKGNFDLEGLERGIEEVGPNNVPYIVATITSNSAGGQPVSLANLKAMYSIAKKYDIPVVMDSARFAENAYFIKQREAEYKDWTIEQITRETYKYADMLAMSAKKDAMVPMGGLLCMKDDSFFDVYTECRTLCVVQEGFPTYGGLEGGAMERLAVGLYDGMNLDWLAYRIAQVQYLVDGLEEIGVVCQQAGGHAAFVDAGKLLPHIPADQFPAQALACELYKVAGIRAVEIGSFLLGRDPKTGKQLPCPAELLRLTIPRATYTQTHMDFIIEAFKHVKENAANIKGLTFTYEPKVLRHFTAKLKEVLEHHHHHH
Procedure: TnaA purity was determined by Coomassie blue staining.

E. coli lysates = assay: Pull-down of S-sulfhydrated proteins from E. coli lysates (Coomassie / silver stain)
WT E. coli cultures = assay: Indole in E. coli culture supernatants (Kovac's reagent and LC-MS/MS); format: cell-based; settings: LB broth supplemented
Procedure: (§1) E. coli K-12 BW25113 strain were used in all the experiments (H2S production, indole production and in vivo experiments). For technical reasons, E. coli K-12 MG1655 was used in the cloning process to generate ΔdecR and tnaA-his, and E. coli K-12 W3110 was used for expressing and purifying TnaA-His. Bacteria were grown in LB broth (Merck) at 37° C. with shaking (250 rpm) aerobically or without shaking anaerobically and where mentioned, LB was supplemented with L-cysteine (Sigma-Aldrich), sodium hydrosulfide (Sigma-Aldrich) and/or L-tryptophan (Sigma-Aldrich). For selection on LB+Chloramphenicol (Cm) agar plates, a concentration of 10 μg/ml Cm was used. The E. coli tnaA739::kan strain was obtained from Yale University Coli Genetic Stock Center (CGSC) as part of the Keio collection (Baba et al., 2006). […]
The TMT fractions were analyzed by LC-MS3 on an Orbitrap Fusion™ Lumos™ Tribrid™ mass spectrometer. Labelled peptide samples were analyzed with an LC-MS3 data collection strategy (McAlister G C et al (2014) Anal. Chem. 86:7150-8) on an Orbitrap Fusion mass spectrometer (Thermo Fisher Scientific) equipped with a Thermo Easy-nLC 1200 for online sample handling and peptide separations. […] E. coli TnaA-His samples were analyzed at the Mass Spectrometry and Proteomics Resource Laboratory. […]

E. coli = E. coli sulfide (H2S) production from L-cysteine in culture (lead acetate, methylene blue) and growth; format: cell-based; settings: LB supplemented with cysteine, aerobic or anaerobic
Procedure: as §1, with “used.” for “used. The E. coli tnaA739::kan strain was obtained from Yale University Coli Genetic Stock Center (CGSC) as part of the Keio collection (Baba et al., 2006).”
Lead acetate paper was prepared by incubating pre-cut Whatman paper in 20 mM lead acetate solution for 20 min at room temperature and then was dried for 20 min at 110° C. and kept in the dark (Hine and Mitchell, 2017). […] 200 μl were plated in 96-well plates in duplicate and analyzed by lead acetate sulfide assay as described above. […] The samples were vortexed briefly and incubated for 20 min at 37° C., thereafter they were centrifuged for 4 min at max speed and the supernatants were transferred to a 96-well plate to determine absorbance at OD670 nm. […] Then 300 μl of DPD/FeCl3 were added and the samples were incubated at 37° C. for 20 min, centrifuged for 4 min at max speed and absorbance was measured in OD670 nm. […]

[2] = treated E. coli lysates, Western blot

T1 sequence (P0A853 whole entry): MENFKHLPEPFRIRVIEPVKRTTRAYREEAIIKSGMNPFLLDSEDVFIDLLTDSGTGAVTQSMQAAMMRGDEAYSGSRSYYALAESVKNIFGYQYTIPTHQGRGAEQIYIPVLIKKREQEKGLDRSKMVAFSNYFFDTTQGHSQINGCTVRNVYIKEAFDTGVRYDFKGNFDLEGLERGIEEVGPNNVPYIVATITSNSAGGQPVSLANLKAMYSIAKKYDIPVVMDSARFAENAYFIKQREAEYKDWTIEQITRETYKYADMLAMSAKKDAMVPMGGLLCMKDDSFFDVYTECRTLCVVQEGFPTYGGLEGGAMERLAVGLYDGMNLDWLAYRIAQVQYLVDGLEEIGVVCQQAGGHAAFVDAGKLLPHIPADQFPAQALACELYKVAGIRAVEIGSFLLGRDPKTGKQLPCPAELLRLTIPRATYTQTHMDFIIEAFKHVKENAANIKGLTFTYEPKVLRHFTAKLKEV

| Structure (SMILES) | TnaA S-sulfhydration (E. coli TnaA; [2]) | S-sulfhydration of proteins (E. coli lysates; treatment of bacterial lysates) | indole concentrations in the supernatants (WT E. coli cultures) | further results |
| --- | --- | --- | --- | --- |
| O[C@H](CS)[C@H](O)CS (racemic) [DTT, dithiothreitol] | – | – | – | increase of TnaA activity ([1]; assay control): 318% |
| OO [H2O2] | reduced | reduced the detection of S-sulfhydration proteins | – | – |
| [Na+].[Na+].[S-]SS[S-] [Na2S4, disodium tetrasulfide] | – | – | – | reduction of TnaA enzymatic activity [1]: 60%; TnaA S-sulfhydration (E. coli TnaA; purified E. coli TnaA, incubation): led to TnaA S-sulfhydration |
| S [NaHS, sodium hydrosulfide] | increased | induced higher S-sulfhydration levels | reduced indole concentrations | – |
| N[C@@H](CS)C(=O)O [cysteine, L-cysteine] | – | – | reduced indole concentrations | E. coli growth (E. coli): without any effects on growth; sulfide production by E. coli (E. coli; lead acetate assay): dose-dependent manner; S-sulfhydration of proteins (E. coli lysates; lysates of E. coli grown in supplemented media vs LB alone): higher level of S-sulfhydration |
